Measured values from patent publication US11472792B2, “Herbicidal mixtures” (SYNGENTA CROP PROTECTION AG, priority 2019, dated 2022).

How the values were obtained:
Assay type in all cases: in vivo
[1] = tested on: Abutilon theophrasti (ABUTH); assay: Herbicidal efficacy, post-emergence application (glasshouse); conditions: evaluated visually after 13 days, 100=total damage, 0=no damage; for pest or weed control at 250 g/ha: Abutilon theophrasti, 312 h, read-out: percentage phytotoxicity to the plant, ABUTH
Procedure: (§1) Seeds of a variety of test species [Ipomoea hederacea (IPOHE); Zea mays (ZEAMX); Echinochloa crus-galli (ECHCG); Setaria faberi (SETFA); Abutilon theophrasti (ABUTH); Amaranthus retroflexus (AMARE)] were sown in standard sterilised soil in pots. After cultivation for one day (pre-emergence) or after 8 days cultivation (post-emergence) under controlled conditions in a glasshouse (at 24/16° C., day/night; 14 hours light; 65% humidity), the plants were sprayed with an aqueous spray solution derived from the formulation of the technical active ingredient in acetone/water (50:50) solution containing 0.5% Tween 20 (polyoxyethelyene sorbitan monolaurate, CAS RN 9005-64-5), subsequently diluted in water, and sprayed to give the stated application rate.
(§2) The test plants were then grown under controlled conditions in a glasshouse (at 24/16° C., day/night; 14 hours light; 65% humidity) and watered twice daily.
(§3) After 13 days for pre and post-emergence, the test was evaluated visually for percentage phytotoxicity to the plant (where 100=total damage to plant; 0=no damage to plant).

[2] = tested on: Amaranthus retroflexus (AMARE); assay: as above; conditions: evaluated visually after 13 days, 100=total damage, 0=no damage; for pest or weed control at 250 g/ha: Amaranthus retroflexus, 312 h, read-out: percentage phytotoxicity to the plant, AMARE
Procedure: as §1, §2, §3

[3] = tested on: Echinochloa crus-galli (ECHCG); assay: as above; conditions: evaluated visually after 13 days, 100=total damage, 0=no damage; for pest or weed control at 250 g/ha: Echinochloa crus-galli, 312 h, read-out: percentage phytotoxicity to the plant, ECHCG
Procedure: as §1, §2, §3

[4] = tested on: Ipomoea hederacea (IPOHE); assay: as above; conditions: evaluated visually after 13 days, 100=total damage, 0=no damage; for pest or weed control at 250 g/ha: Ipomoea hederacea, 312 h, read-out: percentage phytotoxicity to the plant, IPOHE
Procedure: as §1, §2, §3

[5] = tested on: Setaria faberi (SETFA); assay: as above; conditions: evaluated visually after 13 days, 100=total damage, 0=no damage; for pest or weed control at 250 g/ha: Setaria faberi, 312 h, read-out: percentage phytotoxicity to the plant, SETFA
Procedure: as §1, §2, §3

[6] = tested on: Zea mays (ZEAMX); assay: as above; conditions: evaluated visually after 13 days, 100=total damage, 0=no damage; for plant injury at 250 g/ha: Zea mays, 312 h, read-out: percentage phytotoxicity to the plant, ZEAMX
Procedure: as §1, §2, §3

[7] = tested on: Abutilon theophrasti (ABUTH); assay: Herbicidal efficacy, pre-emergence application (glasshouse); conditions: evaluated visually after 13 days, 100=total damage, 0=no damage; for pest or weed control at 250 g/ha: Abutilon theophrasti, 312 h, read-out: percentage phytotoxicity to the plant, ABUTH
Procedure: as §1, §2, §3

[8] = tested on: Amaranthus retroflexus (AMARE); assay: as above; conditions: evaluated visually after 13 days, 100=total damage, 0=no damage; for pest or weed control at 250 g/ha: Amaranthus retroflexus, 312 h, read-out: percentage phytotoxicity to the plant, AMARE
Procedure: as §1, §2, §3

[9] = tested on: Echinochloa crus-galli (ECHCG); assay: as above; conditions: evaluated visually after 13 days, 100=total damage, 0=no damage; for pest or weed control at 250 g/ha: Echinochloa crus-galli, 312 h, read-out: percentage phytotoxicity to the plant, ECHCG
Procedure: as §1, §2, §3

[10] = tested on: Ipomoea hederacea (IPOHE); assay: as above; conditions: evaluated visually after 13 days, 100=total damage, 0=no damage; for pest or weed control at 250 g/ha: Ipomoea hederacea, 312 h, read-out: percentage phytotoxicity to the plant, IPOHE
Procedure: as §1, §2, §3

[11] = tested on: Setaria faberi (SETFA); assay: as above; conditions: evaluated visually after 13 days, 100=total damage, 0=no damage; for pest or weed control at 250 g/ha: Setaria faberi, 312 h, read-out: percentage phytotoxicity to the plant, SETFA
Procedure: as §1, §2, §3

[12] = tested on: Zea mays (ZEAMX); assay: as above; conditions: evaluated visually after 13 days, 100=total damage, 0=no damage; for plant injury at 250 g/ha: Zea mays, 312 h, read-out: percentage phytotoxicity to the plant, ZEAMX
Procedure: as §1, §2, §3

| Compound | pest or weed control at 250 g/ha [1] | pest or weed control at 250 g/ha [2] | pest or weed control at 250 g/ha [3] | pest or weed control at 250 g/ha [4] | pest or weed control at 250 g/ha [5] | plant injury at 250 g/ha [6] | pest or weed control at 250 g/ha [7] | pest or weed control at 250 g/ha [8] | pest or weed control at 250 g/ha [9] | pest or weed control at 250 g/ha [10] | pest or weed control at 250 g/ha [11] | plant injury at 250 g/ha [12] | also measured |
| --- | --- | --- | --- | --- | --- | --- | --- | --- | --- | --- | --- | --- | --- |
| CCc1ccccc1NC(=O)[C@H]1C(=O)N(C)C[C@@H]1c1cc(C(F)(F)F)n(C)n1 [Compound 2.11, (3S,4R)-N-(2-ethylphenyl)-1-methyl-4-[1-methyl-5-(trifluoromethyl)pyrazol-3-yl]-2-oxo-pyrrolidine-3-carboxamide] | 0% | 20% | 80% | 0% | 80% | 0% | 0% | 70% | 90% | 0% | 90% | 20% |  |
| CN1C[C@H](c2cnn(C)c2C(F)(F)F)[C@@H](C(=O)Nc2cccc(F)c2F)C1=O [Compound 2.15, (3S,4S)-N-(2,3-difluorophenyl)-1-methyl-4-[1-methyl-5-(trifluoromethyl)pyrazol-4-yl]-2-oxo-pyrrolidine-3-carboxamide] | 0% | 0% | 80% | 40% | 80% | 30% | 40% | 0% | 100% | 20% | 100% | 40% |  |
| (3S,4R)-N-[2-(1,1-difluoroethyl)-3-fluoro-phenyl]-1-methyl-4-[1-methyl-5-(trifluoromethyl)pyrazol-3-yl]-2-oxo-pyrrolidine-3-carboxamide [Compound 2.12] |  |  |  |  |  |  |  |  |  |  |  |  | percentage phytotoxicity to the plant, ABUTH ([1]; 250 g/ha): 0%; percentage phytotoxicity to the plant, AMARE ([2]; 250 g/ha): 0%; percentage phytotoxicity to the plant, ECHCG ([3]; 250 g/ha): 90%; percentage phytotoxicity to the plant, IPOHE ([4]; 250 g/ha): 50%; percentage phytotoxicity to the plant, SETFA ([5]; 250 g/ha): 90%; percentage phytotoxicity to the plant, ZEAMX ([6]; 250 g/ha): 80%; percentage phytotoxicity to the plant, ABUTH ([7]; 250 g/ha): 0%; percentage phytotoxicity to the plant, AMARE ([8]; 250 g/ha): 0%; percentage phytotoxicity to the plant, ECHCG ([9]; 250 g/ha): 90%; percentage phytotoxicity to the plant, IPOHE ([10]; 250 g/ha): 70%; percentage phytotoxicity to the plant, SETFA ([11]; 250 g/ha): 90%; percentage phytotoxicity to the plant, ZEAMX ([12]; 250 g/ha): 90% |
